From patent publication US7034050B2, “Pseudopeptides growth hormone secretagogues” (priority 2004, dated 2006)

Key:
[1] = target: T1, human pituitary gland tissues (Homo sapiens, UniProt Q92847); experiment: binding affinity to human pituitary gland tissues; conditions: compared with ghrelin, hexarelin, MK 0677 and JMV 1843
T1 construct: from tissue; host or cells: human pituitary gland tissue

GH release [2] = experiment: stimulation of GH release in vitro; type: cell-based
[3] = test system: rat epididynial adipocytes; experiment: binding affinity to rat epididynial adipocytes; conditions: compared with rat ghrelin, MK 0677 and hexarelin
GH release [4] = experiment: GH release in vivo (neonatal rats injected subcutaneously); set-up: species or system rat

T1 sequence (Q92847 whole entry): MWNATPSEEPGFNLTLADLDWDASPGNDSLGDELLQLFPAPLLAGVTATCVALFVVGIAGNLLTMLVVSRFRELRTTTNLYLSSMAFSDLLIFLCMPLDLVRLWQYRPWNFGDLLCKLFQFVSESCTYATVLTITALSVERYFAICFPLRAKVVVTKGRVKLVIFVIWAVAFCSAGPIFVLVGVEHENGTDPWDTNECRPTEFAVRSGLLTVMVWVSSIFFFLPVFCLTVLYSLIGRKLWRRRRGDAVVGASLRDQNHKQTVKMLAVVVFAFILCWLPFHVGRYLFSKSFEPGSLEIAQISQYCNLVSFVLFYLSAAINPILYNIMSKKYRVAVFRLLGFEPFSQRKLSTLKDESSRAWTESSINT

Substance | binding affinity to human pituitary gland tissues [1] | potency in stimulating the GH release in vitro (GH release [2]) | binding affinity to rat epididynial adipocytes [3] | potency in stimulating the GH release in vivo (GH release [4]) | amount of growth hormone released (GH release [4]; neonatal rats, subcutaneous injection, compared with MK 0677 and hexarelin)
Aib-D-Trp-D-Trpψ[CH2—NH—O]Gly-NH2 [IIa] | comparable to that of the natural ligand ghrelin and superior to the binding affinity of the synthetic GH secretagogues | remarkably potent | comparable to that of rat ghrelin and superior to that of MK 0677 and hexarelin | remarkably potent | exceeded the amount released when the standard GH secretagogues MK 0677 and hexarelin were administered
Aib-D-Trp-D-Trpψ[CH═N˜O]Gly-NH2 [Ia] | comparable to that of the natural ligand ghrelin and superior to the binding affinity of the synthetic GH secretagogues | remarkably potent | comparable to that of rat ghrelin and superior to that of MK 0677 and hexarelin | remarkably potent | 
